Test results: patent US4737583A, “Anthracyclin derivatives” (priority 1983, dated 1988)
≈ marks a conversion by molar mass, not a printed value. Read-outs that look alike come from different tables or passages of the source.

Columns and labels:
L1210 leukemia cells = assay: cell proliferation test, incorporation of C14-thymidine into DNA of L1210 leukemia cells; format: cell-based; conditions: Mus musculus
Experimental: The cytorhodins according to the invention are distinguished by a powerful cytostatic activity and gave the following action on L1210 leukemia cells in the cell proliferation test:
The inhibiting action is determined as follows (cell proliferation test):
L1210 cells in the exponential growth phase (5×10^3 /ml in RPMI 1640) are incubated with various concentrations of the test substance in a microtiter plate for 72 hours (37° C., 5% of CO2, 95% relative atmospheric humidity). Controls comprise cells which are incubated only with fresh medium. All the determinations are carried out as quadruplicate determinations. After 65 hours, 50 μl of C14-thymidine (1.5 μC/ml) are added in order to radioactively label the DNA of the cells. After incubation for 7 hours, the cells are filtered off with suction and the DNA is precipitated with 5% strength trichloroacetic acid and washed successively with water and methanol. After drying at 50° C., the radioactivity incorporated into the DNA is determined, after addition of 5 ml of scintillation liquid. The results are given as the relationships of the scintillation index after incubation with test substance in percent of the untreated control. […]

[1] = solubility (description of the substance)

SMILES | IC50 (L1210 leukemia cells; L1210 leukemia cells, 72 hours, 37° C., incorporation of radioactive thymidine reduced by 50% compared with the control, read-out: IC50) | solubility in methanol, ethyl acetate, chloroform and toluene [1] | solubility in water and hexane [1] | IC50 (L1210 leukemia cells; L1210, 72 h)
CCC1(O)CC(OC2CC(N(C)C)C(OC3CC4OC5CC(=O)C(C)OC5OC4C(C)O3)C(C)O2)c2c(O)c3c(c(O)c2C1OC1CC(N(C)C)C(O)C(C)O1)C(=O)c1cccc(O)c1C3=O (stereo not drawn) [Cytorhodin S] | 0.3 ng/mL (≈ 0.319 nM) | readily soluble | insoluble | 
CCC1(O)CC(OC2CC(N(C)C)C(O)C(C)O2)c2c(O)c3c(c(O)c2C1OC1CC(N(C)C)C(OC2CC4OC5CC(=O)C(C)OC5OC4C(C)O2)C(C)O1)C(=O)c1cccc(O)c1C3=O (stereo not drawn) [Cytorhodin T] |  | readily soluble | insoluble | 2 ng/mL (≈ 2.13 nM)
